# Measurements: patent publication US9643971B2 (GALLEON PHARMACEUTICALS, INC., priority 2013, dated 2017)
# “Also recorded” adds a separate entry of the source.
# Key:
# anesthetized rat = assay: Anesthetized rat spirometry screening assay; format: in vivo; details: for AUC MV Inc (2 min) (ratio vs. std*): 2 minute AUC of minute volume increase vs. comparator N-[2,6-di-(n-propylamino)-[1,3]pyrimidin-4-yl]-N,O-dimethyl-hydroxylamine; for VE Peak (% Inc.): peak minute ventilation increase, urethane-anesthetized rat, screening doses 0.1 and 0.3 mg/kg
# From the text: Effect of Compounds of the Invention on Respiratory Rate (RR), Tidal Volume (VT), and the Product Minute Volume Using an Anesthetized Rat Spirometry Screening Assay
# Anesthetized rats provide a quick method of screening compounds for respiratory and cardiovascular activity. In contrast to the conscious rat model, this model offers an experimental set up with less variation in the baseline cardiovascular and respiratory measures. Compounds screened in this assay may be examined in a conscious rat model.
# Rats were initially anesthetized with 3% isoflurane (inhaled) and femoral artery and vein cannulas were surgically inserted. Once cannulated, the rats were transitioned to urethane anesthesia (1.5 g/kg; i.v.) and a tracheal cut-down was performed. After placing the tracheal cannula, it was connected to a pneumotachometer to record respiratory airflow from which respiratory rate (RR), tidal volume (VT), and their product minute volume were derived. After the surgical preparation was complete, animals were allowed to stabilize for 30 minutes while respiratory rate, tidal volume, minute volume, blood pressure and heart rate were recorded continuously. Arterial blood gases (ABG) were obtained from arterial blood collected from the femoral artery. ABG measurements were taken before and 6 minutes after vehicle and each dose of compound administered. Compounds being screened were administered via bolus injections through the venous cannula followed by a saline flush (total time of administration is approximately 30 seconds), and the animal was monitored for at least 6 minutes for changes in cardiovascular efforts. Compounds were prepared in formulations identified to ensure optimal solubility. As such, vehicle controls were matched for the formulation of each compound tested. Dosing of the compound being screened was 0.1 and 0.3 mg/kg. The next dose was not administered until all cardiovascular and respiratory measures had returned to baseline levels. The positive control compounds used were N-[4,6-di-(n-propylamino)-[1,3,5]triazin-2-yl]-N,O-dimethyl-hydroxylamine or N-[2,6-di-(n-propylamino)-[1,3]pyrimidin-4-yl]-N,O-dimethyl-hydroxylamine (both administered at the end of each screening experiment (0.3 mg/kg dose) to validate the experiment and also to serve as a measure with which the compound being screened could be compared.
# Data were analyzed by collecting cardiovascular and respiratory data in 30 second averages (BINs). Data were plotted 2 minutes before challenge and then 6 minutes after challenge.
# [1] = rat, microsomes
# [2] = In vitro metabolic stability in human liver microsomes (HLM); details: for HLM T½: human liver microsomes, 5 μM compound, NADPH, 37° C.; for half-life at 5 μM: both, human, liver microsomes
# [3] = test system: rats chronically treated with morphine; assay: Apnea, ventilation and sleep structure in rats chronically treated with morphine (whole-body plethysmography); format: in vivo, Zucker rats; details: oral gavage; for apnea frequency / number of apneas per hr expressed as a percent change from baseline (pre-drug): versus treatment with a vehicle
# From the text: The objective of this study was to quantify the effects of selected compounds of this invention on apnea, ventilation and sleep structure in a rat model. The study consisted of two treatment conditions: (1) chronic morphine and test compound administered orally, and (2) chronic morphine and oral vehicle.
# Adult male lean Zucker rats were anesthetized for electroencephalogram (EEG) and electromyogram (EMG) telemeter implantation. At least one week was permitted post-surgery before animals were used further. Morphine sulfate was added to the drinking water of singly housed rats beginning with 0.1 mg/ml morphine and increasing the concentration in increments, so that a final concentration of 0.6 mg/ml was achieved within 2 weeks. All respiratory measurements were made while animals were unrestrained in whole-body plethysmography chambers to permit animals to sleep and move freely. To avoid eliciting withdrawal, morphine water was continuously available during each plethysmography experiment. Minute volume and the number of central sleep apneas (CSA) were measured during all treatment conditions. A period of at least 1 to 1.5 h was permitted for animals to acclimate to the chamber before data collection began. The biopotential telemeters and their receivers were placed directly under the plethysmographic chambers and were used to continuously to capture EEG, EMG, and body temperature signals. Only data collected between the hours of 10 am to 4:30 pm were used in the final analysis to control for the effects of circadian rhythm on breathing.
# Test compound in vehicle or an equivalent volume of vehicle was administered via an oral gavage tube at 12 pm. Data collected between 10 am and 12 pm represented baseline (pre-drug) conditions. Data collected between […] represented post-drug conditions. Analyses of the EEG and EMG waveforms for the purpose of staging sleep-wake behavior in rats as awake, NREM sleep, and REM sleep were based on previous sleep studies involving rodents. Central apneas were defined as a respiratory cycle period that was more than or equal to twice the average cycle period during baseline recordings. Percent time in each sleep-wake state, minute volume, and central sleep apnea counts were compared between treatment groups using a two-way ANOVA (factors: drug treatment and time). Breathing data during wakefulness was not analyzed because movement prevents measurement of accurate volumes when using whole-body plethysmography. When differences were detected with ANOVA, Student-Neuman-Keuls post hoc tests were run for all main effects and interactions. Differences were considered significant when p<0.05. Values are expressed as means±SE.
# in vitro = details: male, rat, microsomes
# physchem = details: organic solvent or mixture, thermodynamic from solid
# Procedure: A 3 mL vial with a screw cap was charged with 50 mg of the solid salt and 1 mL of a solvent at room temperature. The mixture was heated if necessary to achieve a clear solution, in some examples producing a mixture comprising a clear portion and a melt or incompletely dissolved crystalline material. The hot mixture was cooled to room temperature. […] Solvents evaluated include acetonitrile, methyl ethyl ketone, methyl isobutyl ketone, ethyl acetate, isopropyl acetate, water, heptane, methyl-tert-butyl ether, cyclohexane, toluene, methanol, ethanol, n-propanol, isopropanol, n-butanol, 2-butanol, isoamyl alcohol, and tetrahydrofuran.
compound,measurement,setting,value
"CCCNc1nc(NC)nc2c(NCCC)ncnc12.Cl [Compound 22a, N^2-Methyl-N^4,N^8-di-n-propylpyrimido[5,4-d]primidine-2,4,8-triamine hydrochloride]",AUC MV Inc (2 min) (ratio vs. std*),anesthetized rat,0.01 ratio vs. std
same,VE Peak (% Inc.),anesthetized rat; i.v. bolus,9 % Inc.
same,RLM T½,[1],0.15 h
same,HLM T½,[2],0.35 h
"CCCNc1nc(NC)c2nc(C(=O)O)nc(NC)c2n1 [Compound 108, 4,8-Bis-methylamino-6-n-propylamino-pyrimido[5,4-d]pyrimidine-2-carboxylic acid]",AUC MV Inc (2 min) (ratio vs. std*),anesthetized rat,0.05 ratio vs. std
same,melting point,,218 to 220 °C
"C=CCNc1nc(NC)nc2c(NCC=C)nc(NC)nc12.Cl [Compound 145a, N^4,N^8-Diallyl-N^2,N^6-dimethyl-pyrimido[5,4-d]pyrimidine-2,4,6,8-tetraamine hydrochloride]",AUC MV Inc (2 min) (ratio vs. std*),anesthetized rat,0.88 ratio vs. std
same,apnea frequency,[3]; hydrochloride,reduced; also recorded: decreased
same,number of apneas per hr expressed as a percent change from baseline (pre-drug),[3]; hydrochloride,reduced; also recorded: decreased
same,minute volume compared to a vehicle-treated group,[3]; hydrochloride,did not cause an increase; also recorded: do not cause increases
same,number of apneas per hr versus vehicle,[3]; hydrochloride,reduced; also recorded: decreased
same,ventilation per unit time compared to vehicle,[3]; hydrochloride,did not cause an increase; also recorded: do not cause an increase
"CNc1nc(NCC2CC2)nc2c(NC)nc(NCC3CC3)nc12.Cl [Compound 85a, N^2,N^6-Bis-cyclopropylmethyl-N^4,N^8-dimethyl-pyrimido[5,4-d]pyrimidine-2,4,6,8-tetraamine hydrochloride]",AUC MV Inc (2 min) (ratio vs. std*),anesthetized rat,0.51 ratio vs. std
same,apnea frequency,[3]; hydrochloride,reduced; also recorded: decreased
same,number of apneas per hr expressed as a percent change from baseline (pre-drug),[3]; hydrochloride,reduced; also recorded: decreased
same,minute volume compared to a vehicle-treated group,[3]; hydrochloride,did not cause an increase; also recorded: do not cause increases
same,number of apneas per hr versus vehicle,[3]; hydrochloride,reduced; also recorded: decreased
same,ventilation per unit time compared to vehicle,[3]; hydrochloride,did not cause an increase; also recorded: do not cause an increase
same,melting point,,264 to 265 °C
same,half-life at 5 μM,in vitro,6.43 h
same,solubility,physchem; Reflux,> 50 mg/mL
same,solubility,physchem; r.t.,< 50 mg/mL
same,half-life at 5 μM,[2],6.48 h
"CCCNc1nc(NCC)nc2c(NCCC)nc(NCC)nc12 [Compound 137a, N^2,N^6-Diethyl-N^4,N^8-di-n-propyl-pyrimido[5,4-d]pyrimidine-2,4,6,8-tetraamine]",AUC MV Inc (2 min) (ratio vs. std*),anesthetized rat,0.88 ratio vs. std
same,minute volume compared to a vehicle-treated group,[3],do not cause increases
same,number of apneas per hr versus vehicle,[3],reduced; also recorded: decreased
same,ventilation per unit time compared to vehicle,[3],did not cause an increase; also recorded: do not cause an increase
same,minute volume compared to a vehicle-treated group,[3]; higher dose,caused an increase
same,minute volume compared to a vehicle-treated group,[3]; low dose,did not cause an increase
same,apnea frequency,[3],reduced; also recorded: decreased
same,number of apneas per hr expressed as a percent change from baseline (pre-drug),[3],reduced; also recorded: decreased
same,half-life at 5 μM,in vitro,1.62 h
same,half-life at 5 μM,[2],3.78 h
"CCCNc1nc(NC)c2nc(NCCC)nc(NC)c2n1.Cl [Compound 27a, N^4,N^8-Dimethyl-N^2,N^6-di-n-propyl-pyrimido[5,4-d]pyrimidine-2,4,6,8-tetraamine hydrochloride]",AUC MV Inc (2 min) (ratio vs. std*),anesthetized rat,1.22 ratio vs. std
same,duration of increase in minute ventilation,"anesthetized rat; anesthetized rat, i.v. bolus",approximately 2 minutes
same,effect on blood pressure,"anesthetized rat; anesthetized rat, i.v. bolus",minimal effects
same,effect on minute ventilation above baseline values,"anesthetized rat; anesthetized rat, i.v. bolus",increase
same,effect on pulse rate,"anesthetized rat; anesthetized rat, i.v. bolus",minimal effects
same,effect on respiratory rate,"anesthetized rat; anesthetized rat, i.v. bolus",stimulatory effects
same,dose dependence of effect on minute volume,anesthetized rat; based on a two-minute average,dose-dependent effect
same,effect compared to a reference compound as measured by area-under-curve,"anesthetized rat; minute volume, two-minute average",greater effect
same,apnea frequency,[3]; hydrochloride,reduced; also recorded: decreased
same,number of apneas per hr expressed as a percent change from baseline (pre-drug),[3]; hydrochloride,reduced; also recorded: decreased
same,minute volume compared to a vehicle-treated group,[3]; hydrochloride,did not cause an increase; also recorded: do not cause increases
same,number of apneas per hr versus vehicle,[3]; hydrochloride,reduced; also recorded: decreased
same,ventilation per unit time compared to vehicle,[3]; hydrochloride,did not cause an increase; also recorded: do not cause an increase
same,half-life at 5 μM,in vitro,2.27 h
same,half-life at 5 μM,[2],2.12 h
"CCCNc1nc(N(CC)CC)nc2c(NCCC)nc(NC)nc12.Cl [Compound 31a, N^2,N^2-Diethyl-N^6-methyl-N^4,N^8-di-n-propyl-pyrimido[5,4-d]pyrimidine-2,4,6,8-tetraamine hydrochloride]",AUC MV Inc (2 min) (ratio vs. std*),anesthetized rat,0.01 ratio vs. std
same,half-life at 5 μM,in vitro,1.8 h
same,half-life at 5 μM,[2],6.95 h
"CCCNc1nc(NCCC)c2nc(NCCC)nc(NCCC)c2n1.Cl [Compound 6a, N^2,N^4,N^6,N^8-Tetra-n-propyl-pyrimido[5,4-d]pyrimidine-2,4,6,8-tetraamine hydrochloride]",AUC MV Inc (2 min) (ratio vs. std*),anesthetized rat,0.54 ratio vs. std
same,melting point,,208 to 211 °C
same,half-life at 5 μM,in vitro,6.93 h
same,half-life at 5 μM,[2],> 8.33 h
"CNc1nc(N(C)NC)nc2c(NC)nc(N(C)C)nc12 [Compound 93a, 6-(N,N′-Dimethyl-hydrazino)-N^2,N^2,N^4,N^8-tetramethyl-pyrimido[5,4-d]pyrimidine-2,4,8-triamine]",AUC MV Inc (2 min) (ratio vs. std*),anesthetized rat,0.03 ratio vs. std
same,half-life at 5 μM,in vitro,0.233 h
same,half-life at 5 μM,[2],1.35 h
"C#CCNc1nc(N(C)OC)nc2c(NCCC)nc(N(C)OC)nc12.Cl [Compound 15a, N^2,N^6-Bis(N-methoxy(N-methyl)amino)-N^4-n-propylamino-N^8-prop-2-ynylamino-pyrimido[5,4-d]pyrimidine hydrochloride]",AUC MV Inc (2 min) (ratio vs. std*),anesthetized rat,0.00 ratio vs. std
same,VE Peak (% Inc.),anesthetized rat; i.v. bolus,6 % Inc.
same,RLM T½,[1],0.567 h
same,HLM T½,[2],1.52 h
"CCCCNc1nc(NCCC)c2nc(NCCCC)nc(NCCC)c2n1.Cl [Compound 8a, N^2,N^6-Di-n-butyl-N^4,N^8-di-n-propyl-pyrimido[5,4-d]pyrimidine-2,4,6,8-tetraamine hydrochloride]",AUC MV Inc (2 min) (ratio vs. std*),anesthetized rat,0.14 ratio vs. std
same,half-life at 5 μM,in vitro,5.52 h
same,half-life at 5 μM,[2],> 8.33 h
"CCCNc1nc(NC2CC2)nc2c(NCCC)nc(NC3CC3)nc12 [Compound 138, N^2,N^6-Dicyclopropyl-N^4,N^8-di-n-propyl-pyrimido[5,4-d]pyrimidine-2,4,6,8-tetraamine]",AUC MV Inc (2 min) (ratio vs. std*),anesthetized rat,0.53 ratio vs. std
same,melting point,,210 to 212 °C
same,half-life at 5 μM,in vitro,5.52 h
same,half-life at 5 μM,[2],> 8.33 h
"CNc1nc(NCC2CC2)nc2c(NC)nc(NCC3CC3)nc12 [Compound 84, N^2,N^6-Bis-cyclopropylmethyl-N^4,N^8-dimethyl-pyrimido[5,4-d]pyrimidine-2,4,6,8-tetraamine]",melting point,,264 to 268 °C
